Measurements from patent publication US6417210B1 (MOR-Research Applications Ltd., priority 1998, dated 2002).

Assays:
[1] = tested on: baboons; conditions: induced by 3-nitropropionic acid, Palfi et al. 1997; cited from earlier work
[2] = tested on: patients suffering from advanced Parkinson's disease with severe levodopa-induced dyskinesias
Procedure: The patients were given optimal anti-parkinsonian drug treatment during the three months prior to the clinical trial. Duration of study was six weeks. First two weeks served to accumulate baseline data. Patients filled up dyskinesias diaries in which they marked at every waking hour whether involuntary movements were present and their severity (mild/moderate and severe). […] The dose was then increased to 25 mg, b.i.d. for additional four days (once in the morning and once in the early afternoon). The dose as then further increased to two 50 mg tablets (total of 100 mg. daily) which the patients took for three additional weeks. They continued to fill up their dyskinesias diaries throughout the trial period.

## Nc1nc2ccc(OC(F)(F)F)cc2s1 [Riluzole, 2-amino-6-trifluoromethoxy benzothiazole]
[1]
  Abnormal motor movement: reduces various abnormal motor movement
[2]; riluzole up to 50 mg b.i.d.
  Adverse effects: no report of adverse-effects
  Tolerability: well-tolerated
[2]; when patients took riluzole
  Efficacy of levodopa and other anti-parkinsonian drugs and total daily time spent in "on" periods: no decrease
  Worsening of the parkinsonian signs and symptoms: no worsening
